The values below come from patent US12054510B2, “2′ and/or 5′ amino-acid ester phosphoramidate 3′-deoxy adenosine derivatives as anti-cancer compounds” (Nucana plc, priority 2014, dated 2024).

One data set deals with RPMI-8226. Description: Solid tumour and haematological malignancy assay (CellTiterGlo). The data set is classed as cell-based, Human. To be noted: for MI %: RPMI-8226, 72 hr. Here is the method:
(§1) In vitro viability assay were performed to assess the effects of compounds on cell viability in selected cell lines over 72 hr using the CellTiterGlo (CTG, Promega-G7573) assay. The tests were performed in duplicates with treatment of compounds at 9 points, 3.16 folds titration in 96 well plates over ˜72 hr. The compound starting concentrations were […]. Cell viability assay using CellTiterGlo in 96-well plate were performed. Compound treatment 72 hrs, standard growth conditions, duplicates. Compounds were dissolved to 40 mM with thawed […]. Compounds were serially diluted at 3.16 fold in thawed DMSO, and warmed to 37° C. before being dissolved in media (2 μl+200 μl). After compounds were dissolved in media, media containing compounds were warmed to 37° C. in incubator and then compounds in media were added to cell plates (50 μl+50 μl) in duplicates. The compounds' final concentrations were from 198M to 19.9 nM. All compound solubilities were checked and recorded again, then the plates were transferred to CO2 tissue culture incubator immediately and incubated for 3 days. DMSO final concentration is 0.5%.
(In ATP-based viability assays light output follows the ATP content of the culture.)

For data set [1], the system named is HL-60. Description: CellTiterGlo cell viability assay, initial screening. The format is cell-based. As to conditions: for M.I. %: maximum percentage inhibition of cell viability: HL-60, 72 hr, Table II; for IC50: Homo sapiens, HL-60, 72 h, read-out: IC50 (relative IC50). The method, then:
(§2) In vitro viability assays were performed to assess the effects of compounds on cell viability in 7 selected cell lines over 72 hr using the CellTiterGlo (CTG, Promega-G7573) assay. The tests were performed in duplicates with treatment of compounds at 9 points, 3.16 folds titration in 96 well plates over ˜72 hr. The compound starting concentrations were […]. Cell viability assay using CellTiterGlo in 96-well plate were performed. The compound treatment was 72 hrs, under standard growth conditions, and in duplicate. Compounds were dissolved to 40 mM with thawed […]. Compounds were serially diluted at 3.16 fold in thawed DMSO, and warmed to 37° C. before being dissolved in media (2 μl+200 μl). After compounds were dissolved in media (media was also warmed to 37° C.). Media containing compounds were warmed to 37° C. in incubator and then compounds in media were added to cell plates (50 μl+50 μl), in duplicates. The compounds final concentrations were from […] to 19.9 nM. All compound solubilities were checked and recorded again, then the plates were transferred to CO2 tissue culture incubator immediately and incubated for 3 days. DMSO final concentration is 0.5%.

Another data set concerns MCF-7. Described as above. The format is cell-based. To be noted: MCF-7; 72 hr; Table II. Here is the method: as §2
Another data set deals with HepG2. The description is as above. To be noted: for M.I. %: maximum percentage inhibition of cell viability: HepG2, 72 hr, Table II; for IC50: Homo sapiens, HepG2, 72 h, read-out: IC50 (relative IC50). The data set is classed as cell-based. Here is the method:
as §2

The subject of a further data set is KG-1. The description is as above. The data set is classed as cell-based. To be noted: KG-1; 72 hr; Table II. The method, then: as §2
A further data set has as its system CCRF-CEM. The data set is described as above. The data set is classed as cell-based. As to conditions: CCRF-CEM; 72 hr; Table II. The method, then: as §2
In data set [2] the test system is K562. The data set is described as above. The format is cell-based. To be noted: 72 hr, Table II. The method, then:
as §2

In data set [3] the test system is MOLT-4. The description is as above. The data set is classed as cell-based. As to conditions: for M.I. %: maximum percentage inhibition of cell viability: MOLT-4, 72 hr, Table II. The method, then: as §2
Data set [4] has as its system HL-60. As to the kind of experiment: ATP ViaLight plus cell viability assay. The data set is classed as cell-based, Human. To be noted: for (FD) fold difference compared to Cordycepin = Cordycepin IC50/ProTide IC50: HL-60. Here is the method: (§3) Certain compounds of the invention were subjected to further studies to test the cytotoxic activity of certain compounds of the invention and also to measure their activity against 4 haematological cancer cell lines • TdT positive CEM (Human ALL) • TdT negative K562 (Human CML) • TdT negative H1-60 (Human ANLL) • RL (CRL-2261) non-HD lymphoma • The concentrations of the active metabolite dATP (Cordycepin triphosphate) in these cell lines was also measured. • The cytotoxic activity and the intracellular 3′-dATP concentrations were also studied in the presence of hENT1, Adenosine Kinase (AK) and Adenosine Deaminase pharmacological inhibitors in CEM and RL cancer cell lines. Said inhibitors that mimic known cancer resistance mechanisms. Methods Cell Culture
(§4) HL-60, K562, CCRF-CEM and RL cell lines were cultured in RPMI-1640 medium (Sigma Aldrich, UK), which were supplemented with 10% Fetal Bovine Serum (FBS) (PAA Laboratories), 1% amphotericin B (5.5 ml) and 1% penicillin/streptomycin (5.5 ml) (PAA Laboratories) and grown in flasks at 37° C. incubator with 5% CO2.
(§5) The amount of ATP was used as a measurement of cell number and cell viability. ATP ViaLight™ plus assay kit (Lonza, USA: Product No. LT07-121) to detect ATP in cells treated in luminescence compatible 96 well plates (initial concentration of cells was 1×10^4 cells/well) with cordycepin and ProTides at concentrations of: 0, 0.1, 0.5, 1, 5 and 10 μM, followed by incubation for 72 hours at 37° C. incubator with 5% CO2. For inhibitor studies, 10 μM of NBTI or 1 μM EHNA or A-134974 was added and left for 5 minutes before adding the drugs (see section 5 for inhibitor details).
(§6) After incubation, 50 μl of cell lysis reagent was added to the 96 well plates to release the intracellular ATP, followed by 100 μl of ATP monitoring reagent (AMR). The luminescent values of each well were determined using FLUOstar OPTIMA microplate reader (BMG Labtech) which convert ATP into light by using luciferase enzyme. Therefore, the amount of luminescence produced was directly proportional to the amount of ATP.
(§7) The dose-response curves of cytotoxicity of the drugs was determined using non-linear regression analysis of percentage cell viability versus concentration and EC50 values were obtained. The intracellular assay was conducted in five replicates for each condition. Intracellular assay was determined using paired t test (two-tailed) analysis of 3′ ATP/ATP concentration and p-values were obtained. For all the analysis, Prism Software program (GraphPad Software) was used and Microsoft Powerpoint® 2013 was used to plot the results.

In data set [5] the test system is K562. Description: ATP ViaLight plus cell viability assay. The format is cell-based, Human. To be noted: for (FD) fold difference compared to Cordycepin = Cordycepin IC50/ProTide IC50: K562. The method, then:
as §3, §4, §5, §6, §7

For the next data set, the system named is BxPC-3. Description: Solid tumour and haematological malignancy assay (CellTiterGlo). The data set is classed as cell-based. As to conditions: 72 hr. Here is the method:
as §1

In a further data set the test system is Jurkat. Described as above. To be noted: for MI %: 72 hr; for IC50: Homo sapiens, 72 h, read-out: IC50 (absolute IC50). The format is cell-based. Here is the method:
as §1

The test system of the next data set is SW620. The description is as above. As to conditions: for IC50: Homo sapiens, SW-620, 72 h, read-out: IC50 (absolute IC50); for MI %: SW620, 72 hr. The data set is classed as cell-based. The method, then: as §1
The test system of data set [6] is MOLT-4. Described as above. The format is cell-based. To be noted: Homo sapiens, MOLT-4, 72 h; for IC50: read-out: IC50 (absolute IC50); for Emax: read-out: MI %. The method, then: as §1
The next data set relates to HS445. The description is as above. To be noted: 72 hr. The data set is classed as cell-based. Here is the method: as §1

On to `C[C@H](NP(=O)(OC[C@@H]1C[C@@H](O)[C@H](n2cnc3c(N)ncnc32)O1)Oc1cccc2ccccc12)C(=O)OCc1ccccc1` (stereo partly drawn) [B, (2S)-benzyl 2-(((((2S,4R,5R)-5-(6-amino-9H-purin-9-yl)-4-hydroxytetrahydrofuran-2-yl)methoxy)(naphthalen-1-yloxy)phosphoryl)amino)propanoate], for which the MI % with RPMI-8226 is reported as 102%; in the data set on BxPC-3, 90%; in the data set with Jurkat, 100%; with SW620, 93%; with HS445, 96%. Moreover, the “M.I. %: maximum percentage inhibition of cell viability” value (shortened to “M.I. %: maximum percentage inhibition”) in the data set on HL-60 [1] was 100%; in the data set with MCF-7, 99%; with HepG2, 95%; in the data set with KG-1, 100%; in the data set on CCRF-CEM, 100%; in the data set on K562 [2] it was 97%. In addition, in the data set on MOLT-4 [3], the “M.I. %: maximum percentage inhibition” value is reported as 100%. In addition, the IC50 (usually the concentration that inhibits the measured activity by half) in the data set on HL-60 [1] was 5 to 15 µM; with MOLT-4 [3] (Homo sapiens, MOLT-4, 72 h, read-out: IC50 (relative IC50)), 0.1 to 5 µM; in the data set on Jurkat, 0.1 to 5 µM; in the data set with SW620, 5 to 15 µM; in the data set with MOLT-4 [6] it was 0.1 to 5 µM. Further, the “(FD) fold difference compared to Cordycepin = Cordycepin IC50/ProTide IC50” value with HL-60 [4] was 4; with K562 [5], 52. For the same compound, in the data set on MOLT-4 [6], the Emax was found to be 98%.

As to `COC(=O)C(C)(C)NP(=O)(OC[C@@H]1C[C@@H](O)[C@H](n2cnc3c(N)ncnc32)O1)Oc1cccc2ccccc12` (stereo partly drawn) [E, Methyl 2-(((((2S,4R,5R)-5-(6-amino-9H-purin-9-yl)-4-hydroxytetrahydrofuran-2-yl)-methoxy)(naphthalen-1-yloxy)phosphoryl)amino)-2-methylpropanoate], the MI % in the data set with RPMI-8226 was found to be 89%; in the data set on BxPC-3, 71%; in the data set on Jurkat, 95%; with SW620, 74%; in the data set on HS445, 85%. Further, the “M.I. %: maximum percentage inhibition” value in the data set with HL-60 [1] came to 74%; in the data set on MCF-7 it was 78%; with HepG2, 59%; in the data set on KG-1 it was 69%; with CCRF-CEM, 90%; in the data set with K562 [2], 81%. In the data set with MOLT-4 [3], the “M.I. %: maximum percentage inhibition” value is given as 97%. In addition, the IC50 with HL-60 [1], in the data set on HepG2 and in the data set with SW620 was 15 to 100 µM each time. Besides, the “(FD) fold difference compared to Cordycepin = Cordycepin IC50/ProTide IC50” value with HL-60 [4] and in the data set with K562 [5] was 1 each time. For the same compound, the Emax with MOLT-4 [6] was determined as 98%.

Regarding `CCOC(=O)CCc1ccccc1OP(=O)(N[C@@H](C)C(=O)OCc1ccccc1)OC[C@@H]1C[C@@H](O)[C@H](n2cnc3c(N)ncnc32)O1` (stereo partly drawn) [F, (2S)-benzyl 2-(((((2S,4R,5R)-5-(6-amino-9H-purin-9-yl)-4-hydroxytetrahydrofuran-2-yl)methoxy)(2-(3-ethoxy-3-oxopropyl)phenoxy)phosphoryl)amino)propanoate], the IC50 in the data set on RPMI-8226 (Homo sapiens, RPMI-8226, 72 h, read-out: IC50 (absolute IC50)) is 15 to 100 µM; in the data set with HL-60 [1], 15 to 100 µM; in the data set on HepG2 it was 15 to 100 µM; in the data set on HL-60 [4] (Homo sapiens, HL-60, 72 h) it was 8.3 µM; in the data set on K562 [5] (Homo sapiens, K562, 72 h) it was 6.3 µM; in the data set with Jurkat it was 0.1 to 5 µM. Besides, the values for the IC50 in the data set with SW620 and in the data set with MOLT-4 [6] were 15 to 100 µM and 0.1 to 5 µM, respectively. In addition, the MI % in the data set with RPMI-8226 amounted to 106%; with BxPC-3, 78%; with Jurkat it was 100%; in the data set with HS445 it was 92%. Further, the “M.I. %: maximum percentage inhibition” value with HL-60 [1] is given as 100%; with MCF-7 it was 99%; with HepG2 it was 84%; in the data set on KG-1, 98%; in the data set on CCRF-CEM it was 99%; with K562 [2], 91%. For the same compound, the “M.I. %: maximum percentage inhibition” value in the data set on MOLT-4 [3] is 100%. The “(FD) fold difference compared to Cordycepin = Cordycepin IC50/ProTide IC50” value in the data set with HL-60 [4] is on record as 1; in the data set with K562 [5] it was 2. Also, the Emax in the data set on MOLT-4 [6] was 98%.
